# Patent publication US20260242350A1, “POLYCYCLIC THYROID HORMONE BETA RECEPTOR AGONIST AND USE THEREOF” (CASCADE PHARMACEUTICALS, INC., priority 2023, published 2026)
# How the values were obtained:
# [1] = target: T1, THRα LBD (His-GST-dLBT-THRα LBD) (Homo sapiens, UniProt P10827); experiment: THR-FRET (time-resolved fluorescence resonance energy transfer) agonist activity assay, THRα; format: biochemical; conditions: 24 h at room temperature
# T1 construct: made in house; host or cells: E. coli BL21 (DE3)
# T1 sequence (P10827 163-407 isoform P10827-2): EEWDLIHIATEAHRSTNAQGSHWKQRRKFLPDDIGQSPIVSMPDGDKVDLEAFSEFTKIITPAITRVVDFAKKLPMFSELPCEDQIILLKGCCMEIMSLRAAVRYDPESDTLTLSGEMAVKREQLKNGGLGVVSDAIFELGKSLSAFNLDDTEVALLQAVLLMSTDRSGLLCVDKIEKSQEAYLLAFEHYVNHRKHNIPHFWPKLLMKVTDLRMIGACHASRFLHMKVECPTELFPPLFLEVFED
# Excerpt: (§1) Experimental Example 1: Detection of Agonist Activities of Compounds Against THRα/β Based on Time-Resolved Fluorescence Resonance Energy Transfer (THR-FRET)
# (§2) 1. Construction of THRα/β Overexpression Vectors
# (§3) By visiting NCBI, the THRα/β LBD domain sequences were found. The pET21-His-GST-dLBT-THRα LBD and pET21-His-GST-dLBT-THRβLBD overexpression vectors were constructed by the fusion method, and sequenced to confirm the accuracy of the sequences.
# (§4) 2. Prokaryotic Expression of Recombinant Proteins in E. coli
# (§5) The THRα LBD and THRβLBD overexpression vectors confirmed by sequencing were transfected into E. coli cells BL21 (DE3), and spread on an ampicillin-resistant agar plate. Monoclones were picked out and amplified in an LB medium, and transferred into 1 L LB at a ratio of 1:100 for large-scale culture. When the OD value was at 0.8 to 1.2, 0.5 mM isopropyl-beta-D-thiogalactopyranoside (IPTG) was added, and induced overnight at 18° C. The bacteria were harvested, disrupted, and purified via the GST column and the molecular sieve to obtain two proteins His-GST-dLBT-THRα LBD and His-GST-dLBT-THRβLBD.
# (§6) 3. Preparation of Compounds and Formulation of Reaction System
# (§7) The proteins were taken out from a refrigerator at −80° C. The protein s with the GST-tagged THRα/p LBD domain and the Eu-labelled GST antibodies were thawed slowly on ice, and an assay buffer containing a final concentration of 5 mM dithiothreitol (DTT) was formulated.
# (§8) 3.1 Preparation of Compounds
# (§9) The starting concentration of the compound was 10 μM (in DMSO). The compound (100 μM in DMSO) was subjected to 3-fold isogradient dilution with DMSO to obtain a total of 11 isogradient concentrations. Subsequently, the above compounds at the isogradient concentration were further subjected to 50-fold dilution with an assay buffer containing 5 mM DTT.
# (§10) 3.2 Formulation of THR-FRET Reaction System
# (§11) The final concentrations of all components were calculated based on a system with a final volume of 20 µL per well. To […] of assay buffer containing 5 mM DTT, the GST-tagged THRα/β proteins, the SRC2 ([…]) polypeptide, XL665 (Cisobio, #610SAXLB), and the Eu-labeled GST antibody were added, and the final concentrations were 2 nM, 200 nM, 0.05 nM, and 7.6 nM respectively to formulate 18 μL of reaction mixture of the proteins, polypeptide, and antibody per well.
# (§12) 18 μL of reaction mixture and 2 μL of diluted compound were added into an optiplate-384-well plate, and reacted at room temperature for 24 h.
# (§13) The plate was read using an MD i3x multi-mode microplate reader with the excitation and emission wavelengths of 340 nm and 665 nm, respectively. The intensity of light at a wavelength of 616 nm generated by europium excited by 340 nm wavelength light from the MD i3x multi-mode microplate reader was used as the background. According to the different activation degrees of different compounds against THRα and THRβ, the intensity of the emission light at a wavelength of 665 nm generated by exciting XL665 with the exciting light at a wavelength of 616 nm was varied. The intensity ratio between these two light wavelengths (665 nm, 616 nm) was used as the activation activity of the compound against THRα or THRβ, and was normalized against the ratio in the vehicle DMSO group. The dose-response curve was fitted with four parameters using the GraphPad Prism 6.0 software, and the EC50 value was calculated.
# [2] = target: T2, THRβ LBD (His-GST-dLBT-THRβLBD) (Homo sapiens, UniProt P10828); experiment: THR-FRET (time-resolved fluorescence resonance energy transfer) agonist activity assay, THRβ; format: biochemical; conditions: for EC50: 24 h at room temperature; for Selectivity (THRα/THRβ): ratio of EC50 THRα/THRβ
# T2 construct: made in house; host or cells: E. coli BL21 (DE3)
# T2 sequence (P10828 217-461 limits assumed): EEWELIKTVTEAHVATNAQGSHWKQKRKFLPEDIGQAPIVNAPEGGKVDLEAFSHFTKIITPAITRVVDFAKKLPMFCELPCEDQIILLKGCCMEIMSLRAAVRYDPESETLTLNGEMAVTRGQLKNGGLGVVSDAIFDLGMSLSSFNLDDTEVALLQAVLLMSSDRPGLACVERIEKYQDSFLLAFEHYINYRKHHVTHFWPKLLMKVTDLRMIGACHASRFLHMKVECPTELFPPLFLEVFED
# Excerpt: as §1, §2, §3, §4, §5, §6, §7, §8, §9, §10, §11, §12, §13
# THRβ (pGAL4-THRβ-LBD) = target: T3, THRβ (pGAL4-THRβ-LBD) (Homo sapiens, UniProt P10828); experiment: Reporter gene (Dual-Glo luciferase) agonist activity assay in HEK293T cells, THRβ; format: cell-based; conditions: ratio of EC50 THRα/THRβ
# T3 construct: expressed in transfected cells; host or cells: HEK293T
# T3 sequence (P10828 217-461): T2 sequence (P10828 217-461 limits assumed)
# Excerpt: Experimental Example 2: Detection of Agonist Activities of Compounds Against THRα and THRβ Based on Reporter Gene Activity Assay Method
# 1.1 Construction and Preparation of Plasmids pGAL4-THR-LBD and pG5-Luc
# The pGAL4-THRα-LBD and pGAL4-THRβ-LBD plasmids used in the reporter gene assay system were constructed by a conventional molecular cloning method comprising the following main steps: the cDNA sequences of THRα (NM_003250) and THRβ(NM_000461) corresponding to the amino acid sequences of THRα (163-407AA) and THRβ(217-461AA) were inserted into the BamHI and NotI enzyme digestion sites of the pGAL4 vector by the PCR technique respectively to obtain the pGAL4-THRα-LBD and pGAL4-THRβ-LBD plasmids; the pG5-Luc (#E249A) and pRL-TK (#E2241) plasmids were purchased from Promega; the plasmids were transfected into the E. coli DH5a by the CaCl2 method, and after further culture and amplification, the plasmids were purified by Plasmid Extraction Kits (TIANGEN, #D107) to obtain the corresponding plasmid DNAs.
# 1.2 Co-Transfection of Plasmids into HEK293T Cells and Treatment with Compounds
# The HEK293T cells were inoculated into a 96-well plate at a density of 1×10^4/well the day before plasmid transfection. Cell transfection was conducted according to the instructions of the transfection reagent FuGENE® HD (Promega, #E2311). The main steps were as follows: taking one well as an example here, the plasmids pGAL4-THRα-LBD or pGAL4-THRβ-LBD, pG5-Luc, and pRL-TK were added in the proportions of 20 ng, 50 ng, and 5 ng to 10 μL of Opti-MEM™ I medium (Gibco, #11058021) and mixed well; subsequently, 0.25 μL of FuGENE® HD was added, mixed well, and then left at room temperature for 5 min; afterwards, […] was added to the cell wells containing 100 μL of culture medium. After cell co-transfection for 6 h, the compound was diluted in a 3-fold gradient with dimethyl sulfoxide at the highest concentration of 1 μM. The compound was added to the cell culture medium at a total of 10 concentrations for treatment for 24 h. There were a total of two duplicate wells for each concentration. Triiodothyronine (T3) was used as the positive control.
# 1.3 Dual-Glo Luciferase Assay
# After the cells were treated with the compound for 24 h, the cells were assayed according to the instructions of Dual-Glo® Luciferase Assay System (Promega, #E2940). The main steps were as follows: 50 μL of culture medium was aspirated from each well and discarded, and then 50 μL of Dual-Glo® Luciferase reagent was added and oscillated at room temperature for 10 min; 80 μL of lysis reaction solution was measured into a white opaque optiPlate-96-well plate, and the luminescence signal value (Firefly-Luc) of the Firefly luciferase was detected using an MD i3x multi-mode microplate reader; 40 μL of Dual-Glo® Stop & Glo® reagent was then added, and oscillated at room temperature for 10 min; the luminescence signal value (Renilla-Luc) of the Renilla luciferase was then detected using an MD i3x multi-mode microplate reader. The Firefly-Luc/Renilla-Luc ratio was used as the activation activity of the compound against THR, and was normalized against the ratio in the vehicle DMSO group; the dose-response curve was fitted with four parameters using the GraphPad Prism6.0 software, and the EC50 value was calculated.
SMILES,EC50 [1] [nM],EC50 [2] [nM],Selectivity (THRα/THRβ) [2],Selectivity (THRα/THRβ) (THRβ (pGAL4-THRβ-LBD))
[2H]C(F)(F)c1nn(-c2cc(Br)c(Cn3ccc(=O)c4ccccc43)c(Br)c2)c(=O)[nH]c1=O [Compound 71],50 to 100,< 50,†† (10 > THRα/β > 1),†††† (THRα/β > 20)
[2H]C(c1c(Br)cc(-n2nc(C(F)F)c(=O)[nH]c2=O)cc1Br)n1ccc(=O)c2ccccc21 (centres unmarked) [Compound 72],50 to 100,< 50,†† (10 > THRα/β > 1),††† (20 ≥ THRα/β > 10)
